Laboratory results published in ChEMBL document CHEMBL1129930, “Analogues of methotrexate in rheumatoid arthritis. 2. Effects of 5-deazaaminopterin, 5,10-dideazaaminopterin, and analogues on type II collagen-induced arthritis in mice” (J Med Chem, 1997).

Assays:
[1] = Concentration required to inhibit the growth of chang liver cells.; type: functional; details: Homo sapiens
L1210 = assay: Concentration required to inhibit the growth of L1210 cells.; type: functional, cell-based; details: Mus musculus
Mus musculus [2] = assay: Incidence of disease (mouse type II collagen) was scored as the percentage of animals within each experimental group that exhibited joint or limb inflammation on day 37 at intraperitoneal dose of 1.5 mg/kg; type: functional
Mus musculus [3] = assay: Incidence of disease (mouse type II collagen) was scored as the percentage of animals within each experimental group that exhibited joint or limb inflammation on day 37 at intraperitoneal dose of 3 mg/kg; type: functional
Mus musculus [4] = assay: Incidence of disease (mouse type II collagen) was scored as the percentage of animals within each experimental group that exhibited joint or limb inflammation on day 23 at intraperitoneal dose of 1.5 mg/kg; type: functional
Mus musculus [5] = assay: Incidence of disease (mouse type II collagen) was scored as the percentage of animals within each experimental group that exhibited joint or limb inflammation on day 23 at intraperitoneal dose of 3 mg/kg; type: functional
Mus musculus [6] = assay: Incidence of disease (mouse type II collagen) was scored as the percentage of animals within each experimental group that exhibited joint or limb inflammation on day 23 at intraperitoneal dose of 6 mg/kg; type: functional
Mus musculus [7] = assay: Incidence of disease (mouse type II collagen) was scored as the percentage of animals within each experimental group that exhibited joint or limb inflammation on day 44 at intraperitoneal dose of 1.5 mg/kg; type: functional
Mus musculus [8] = assay: Incidence of disease (mouse type II collagen) was scored as the percentage of animals within each experimental group that exhibited joint or limb inflammation on day 44 at intraperitoneal dose of 3 mg/kg; type: functional
Mus musculus [9] = assay: Incidence of disease (mouse type II collagen) was scored as the percentage of animals within each experimental group that exhibited joint or limb inflammation on day 44 at intraperitoneal dose of 6 mg/kg; type: functional
Mus musculus [10] = assay: Incidence of disease (mouse type II collagen) was scored as the percentage of animals within each experimental group that exhibited joint or limb inflammation on day 30 at intraperitoneal dose of 3 mg/kg; type: functional
Mus musculus [11] = assay: Incidence of disease (mouse type II collagen) was scored as the percentage of animals within each experimental group that exhibited joint or limb inflammation on day 30 at intraperitoneal dose of 6 mg/kg; type: functional
Mus musculus [12] = assay: Incidence of disease (mouse type II collagen) was scored as the percentage of animals within each experimental group that exhibited joint or limb inflammation on day 37 at intraperitoneal dose of 6 mg/kg; type: functional
Mus musculus [13] = assay: Incidence of disease (mouse type II collagen) was scored as the percentage of animals within each experimental group that exhibited joint or limb inflammation on day 30 at intraperitoneal dose of 1.5 mg/kg; type: functional
Mus musculus [14] = assay: Tested for antiinflammatory activity on mouse type II collagen arthritis as Paw swelling of all animals in each group on day 44 at intraperitoneal dose of 1.5 mg/kg; type: functional
Mus musculus [15] = assay: Tested for antiinflammatory activity on mouse type II collagen arthritis as Paw swelling of all animals in each group on day 30 at intraperitoneal dose of 3 mg/kg; type: functional
Mus musculus [16] = assay: Tested for antiinflammatory activity on mouse type II collagen arthritis as Paw swelling of all animals in each group on day 30 at intraperitoneal dose of 6 mg/kg; type: functional
Mus musculus [17] = assay: Tested for antiinflammatory activity on mouse type II collagen arthritis as Paw swelling of all animals in each group on day 23 at intraperitoneal dose of 1.5 mg/kg; type: functional
Mus musculus [18] = assay: Tested for antiinflammatory activity on mouse type II collagen arthritis as Paw swelling of all animals in each group on day 23 at intraperitoneal dose of 3 mg/kg; type: functional
Mus musculus [19] = assay: Tested for antiinflammatory activity on mouse type II collagen arthritis as Paw swelling of all animals in each group on day 23 at intraperitoneal dose of 6 mg/kg; type: functional
Mus musculus [20] = assay: Tested for antiinflammatory activity on mouse type II collagen arthritis as Paw swelling of all animals in each group on day 44 at intraperitoneal dose of 3 mg/kg; type: functional
Mus musculus [21] = assay: Tested for antiinflammatory activity on mouse type II collagen arthritis as Paw swelling of all animals in each group on day 37 at intraperitoneal dose of 3 mg/kg; type: functional
Mus musculus [22] = assay: Tested for antiinflammatory activity on mouse type II collagen arthritis as Paw swelling of all animals in each group on day 37 at intraperitoneal dose of 6 mg/kg; type: functional
Mus musculus [23] = assay: Tested for antiinflammatory activity on mouse type II collagen arthritis as Paw swelling of all animals in each group on day 30 at intraperitoneal dose of 1.5 mg/kg; type: functional
Mus musculus [24] = assay: Tested for antiinflammatory activity on mouse type II collagen arthritis as Paw swelling of all animals in each group on day 37 at intraperitoneal dose of 1.5 mg/kg; type: functional
Mus musculus [25] = assay: Tested for antiinflammatory activity on mouse type II collagen arthritis as Paw swelling of all animals in each group on day 44 at intraperitoneal dose of 6 mg/kg; type: functional
Mus musculus [26] = assay: Incidence of disease (mouse type II collagen) was scored as the percentage of animals within each experimental group that exhibited joint or limb inflammation on day 37 at intraperitoneal dose of 12 mg/kg; type: functional
Mus musculus [27] = assay: Incidence of disease (mouse type II collagen) was scored as the percentage of animals within each experimental group that exhibited joint or limb inflammation on day 23 at intraperitoneal dose of 12 mg/kg; type: functional
Mus musculus [28] = assay: Incidence of disease (mouse type II collagen) was scored as the percentage of animals within each experimental group that exhibited joint or limb inflammation on day 44 at intraperitoneal dose of 12 mg/kg; type: functional
Mus musculus [29] = assay: Incidence of disease (mouse type II collagen) was scored as the percentage of animals within each experimental group that exhibited joint or limb inflammation on day 30 at intraperitoneal dose of 12 mg/kg; type: functional
Mus musculus [30] = assay: Tested for antiinflammatory activity on mouse type II collagen arthritis as Paw swelling of all animals in each group on day 30 at intraperitoneal dose of 12 mg/kg; type: functional
Mus musculus [31] = assay: Tested for antiinflammatory activity on mouse type II collagen arthritis as Paw swelling of all animals in each group on day 23 at intraperitoneal dose of 12 mg/kg; type: functional
Mus musculus [32] = assay: Tested for antiinflammatory activity on mouse type II collagen arthritis as Paw swelling of all animals in each group on day 44 at intraperitoneal dose of 12 mg/kg; type: functional
Mus musculus [33] = assay: Tested for antiinflammatory activity on mouse type II collagen arthritis as Paw swelling of all animals in each group on day 37 at intraperitoneal dose of 12 mg/kg; type: functional

Row | Compound | IC50 [1] | IC50 (L1210) | Animals (Mus musculus [3]) | Animals (Mus musculus [5]) | Animals (Mus musculus [6]) | Animals (Mus musculus [9]) | Animals (Mus musculus [11]) | Animals (Mus musculus [12]) | Paw swelling (Mus musculus [16]) | Paw swelling (Mus musculus [19]) | Paw swelling (Mus musculus [22]) | Paw swelling (Mus musculus [25]) | Animals (Mus musculus [26]) | Animals (Mus musculus [27]) | Animals (Mus musculus [28]) | Animals (Mus musculus [29]) | Paw swelling (Mus musculus [30]) | Paw swelling (Mus musculus [31]) | Paw swelling (Mus musculus [32]) | Paw swelling (Mus musculus [33]) | further results
1 | CCCN(Cc1cnc2nc(N)nc(N)c2c1C)c1ccc(C(=O)NC(CCC(=O)O)C(=O)O)cc1 (stereo not given) | 14 nM | 11 nM | 0% | 0% | 0% | 25% | 12% | 12% | 2.19 mm | 2.16 mm | 2.2 mm | 2.24 mm |  |  |  |  |  |  |  |  | Animals (Mus musculus [2]): 12%; Animals (Mus musculus [4]): 0%; Animals (Mus musculus [7]): 25%; Animals (Mus musculus [8]): 0%; Animals (Mus musculus [10]): 0%; Animals (Mus musculus [13]): 0%; Paw swelling (Mus musculus [14]): 2.22 mm; Paw swelling (Mus musculus [15]): 2.13 mm; Paw swelling (Mus musculus [17]): 2.15 mm; Paw swelling (Mus musculus [18]): 2.12 mm; Paw swelling (Mus musculus [20]): 2.16 mm; Paw swelling (Mus musculus [21]): 2.17 mm; Paw swelling (Mus musculus [23]): 2.15 mm; Paw swelling (Mus musculus [24]): 2.21 mm
2 | C#CCN(Cc1cnc2nc(N)nc(N)c2c1CC)c1ccc(C(=O)NC(CCC(=O)O)C(=O)O)cc1 (stereo not given) |  |  | 25% | 0% | 0% | 25% | 12% | 25% | 2.16 mm | 2.17 mm | 2.21 mm | 2.2 mm | 25% | 12% | 25% | 12% | 2.2 mm | 2.22 mm | 2.2 mm | 2.23 mm | Animals (Mus musculus [8]): 25%; Animals (Mus musculus [10]): 12%; Paw swelling (Mus musculus [15]): 2.16 mm; Paw swelling (Mus musculus [18]): 2.13 mm; Paw swelling (Mus musculus [20]): 2.39 mm; Paw swelling (Mus musculus [21]): 2.24 mm
3 | Nc1nc(N)c2cc(CCc3ccc(C(=O)NC(CCC(=O)O)C(=O)O)cn3)cnc2n1 (stereo not given) |  |  |  |  | 0% | 88% | 88% | 88% | 2.39 mm | 2.12 mm | 2.61 mm | 2.86 mm | 88% | 0% | 88% | 62% | 2.28 mm | 2.1 mm | 2.67 mm | 2.5 mm | 
4 | Cc1c(CCc2ccc(C(=O)NC(CCC(=O)O)C(=O)O)cn2)cnc2nc(N)nc(N)c12 (stereo not given) | 4110 nM | 629 nM |  |  | 0% | 75% | 25% | 38% | 2.22 mm | 2.16 mm | 2.59 mm | 2.55 mm | 62% | 0% | 75% | 38% | 2.33 mm | 2.16 mm | 2.66 mm | 2.69 mm | 
5 | Cc1c(CCc2ccc(C(=O)NC(CCC(=O)O)C(=O)O)cc2)cnc2nc(N)nc(N)c12 (stereo not given) | 334 nM | 379 nM | 100% | 25% | 38% | 100% | 100% | 100% | 2.77 mm | 2.3 mm | 2.81 mm | 2.97 mm | 88% | 50% | 100% | 75% | 2.71 mm | 2.32 mm | 2.85 mm | 3.01 mm | Animals (Mus musculus [8]): 100%; Animals (Mus musculus [10]): 100%; Paw swelling (Mus musculus [15]): 2.73 mm; Paw swelling (Mus musculus [18]): 2.21 mm; Paw swelling (Mus musculus [20]): 3.12 mm; Paw swelling (Mus musculus [21]): 3.09 mm
